Assay results reported in paper PMC11784839, “Monoaminergic neurotransmitters are bimodal effectors of tau aggregation” (Science Advances, 2025).

Molecular target: tau (Homo sapiens, UniProt P10636)
Assay: MCE Phenols Library screening, tau biosensor cell seeding assay (AvZ)
Format: cell-based
Conditions: for Z repl 1 / Z Repl 2: Z score; for Z repl 1 / raw data 1: replicate 1; for Z Repl 2 / raw data 2: replicate 2; for AvZ (average z score of seeding, SDs from the mean level of seeding): 10 μM phenol in cell cultures, AD brain homogenate preincubated 16 hours, two biological replicates, positive = catalyzes seeding, negative = inhibits
[1] = average Z score of the two replicates, MCE Phenols Library screen
[2] = average puncta of the two replicates
[3] = average Z score of the two replicates, tau biosensor seeding, MCE Phenols Library screen
[4] = average Z score of the two replicates, tau seeding
[5] = average Z score of two replicates, Phenols Library screen

tau, sequence (P10636 623-695 limits assumed): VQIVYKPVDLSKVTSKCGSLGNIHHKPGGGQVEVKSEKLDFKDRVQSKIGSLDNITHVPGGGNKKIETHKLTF

Row | SMILES | Z repl 1 | Z Repl 2 | av Z [1] | av puncta [2] | raw data 1 (raw puncta) | raw data 2 (raw puncta) | av Z [3] | av puncta (average of raw data 1 and 2) | raw data 1 (puncta) | raw data 2 (puncta) | AvZ (average z score of seeding, SDs from the mean level of seeding) | av Z [4] | av Z [5]
1 | Oc1cc(O)cc(/C=C/c2ccc(O)cc2O)c1 [Oxyresveratrol] | 0.048 | -0.792 | -0.372 | 15614.1 | 26923.9 | 4304.18 | – | – | – | – | – | – | –
2 | COc1c(O)cc(O)c2c(=O)cc(-c3ccccc3)oc12 [Wogonin] | 0.851 | 1.113 | – | – | – | – | 0.982 | 30607.4 | 36560.6 | 24654.2 | – | – | –
3 | COc1cc2oc(-c3ccccc3)cc(=O)c2c(O)c1O [Negletein] | -1.009 | -0.535 | -0.772 | – | – | – | – | 10644.7 | 14234.4 | 7055.07 | – | – | –
4 | Oc1cc2c(cc1O)[C@@H]1c3ccc(O)c(O)c3OC[C@]1(O)C2 [Hematoxylin] | -1.7 | -0.865 | -1.283 | – | – | – | – | 4731.6 | 5936.96 | 3526.25 | – | – | –
5 | Oc1cccc(O)c1O [Pyrogallol] | -0.635 | -1.067 | – | – | – | – | – | 10051 | 18727.1 | 1374.88 | -0.851 | – | –
6 | COc1ccc(-c2cc(=O)c3c(O)c(OC)c(O[C@@H]4O[C@H](CO[C@@H]5O[C@@H](C)[C@H](O)[C@@H](O)[C@H]5O)[C@@H](O)[C@H](O)[C@H]4O)cc3o2)cc1 [Pectolinarin] | 0.677 | -0.144 | – | – | – | – | – | 22850.6 | 34472.8 | 11228.4 | – | 0.266 | –
7 | COc1cc(CCC(=O)CC(=O)CCc2ccc(O)c(OC)c2)ccc1O [Tetrahydrocurcumin] | 0.298 | -0.72 | -0.211 | 17498 | 29921.4 | 5074.48 | – | – | – | – | – | – | –
8 | COc1ccc(-c2coc3cc(O[C@@H]4O[C@H](CO)[C@@H](O)[C@H](O)[C@H]4O)ccc3c2=O)cc1O [Calycosin-7-O-?-D-glucoside] | 0.722 | 1.127 | – | – | – | – | 0.924 | 29908.6 | 35020 | 24797.2 | – | – | –
9 | O=c1cc(-c2ccc(O)cc2)oc2cc(O[C@@H]3O[C@H](CO)[C@@H](O)[C@H](O)[C@H]3O[C@@H]3OC[C@](O)(CO)[C@H]3O)cc(O)c12 [Apiin] | 1.204 | 0.234 | – | – | – | – | – | 28032.2 | 40800.8 | 15263.6 | – | 0.719 | –
10 | O=C(OCC1=C[C@@H](O)[C@@H]2C=CO[C@@H](O[C@@H]3O[C@H](CO)[C@@H](O)[C@H](O)[C@H]3O)[C@H]12)c1ccc(O)cc1 [Agnuside] | -0.301 | 0.292 | – | – | – | – | – | 19312.6 | 22737.6 | 15887.6 | – | – | -0.004
11 | COc1c(O)cc2c(c1O)[C@@H]1O[C@H](CO)[C@@H](O)[C@H](O)[C@H]1OC2=O [Bergenin] | 0.275 | -0.537 | – | – | – | – | – | 18336.6 | 29646.8 | 7026.42 | – | – | -0.131
12 | Oc1cc(O)c2c(c1)O[C@H](c1cc(O)c(O)c(O)c1)[C@@H](O)C2 [(+)-Gallocatechin] | -0.679 | -1.082 | -0.881 | – | – | – | – | 9700.21 | 18193.2 | 1207.17 | – | – | –
13 | O=C(/C=C/c1ccc(O)cc1)OC[C@H]1O[C@@H](Oc2c(-c3ccc(O)cc3)oc3cc(O)cc(O)c3c2=O)[C@H](O)[C@@H](O)[C@@H]1O [Tribuloside] | -0.731 | -0.145 | -0.438 | 14393.7 | 17568.8 | 11218.6 | – | – | – | – | – | – | –
14 | Cc1cccc(O)c1O [3-Methylcatechol] | -0.458 | -0.383 | – | 14763.7 | 20851.2 | 8676.12 | – | – | – | – | -0.42 | – | –
15 | COc1cc([C@@H]2c3cc4c(cc3C[C@H]3COC(=O)[C@@H]32)OCO4)cc(OC)c1OC [Deoxypodophyllotoxin] | 3.44 | 3.821 | – | – | – | – | 3.63 | 60606.3 | 67641.6 | 53571.1 | – | – | –
16 | O=C(OC[C@H]1OC(OC(=O)c2cc(O)c(O)c(O)c2)[C@H](OC(=O)c2cc(O)c(O)c(O)c2)[C@@H](OC(=O)c2cc(O)c(O)c(O)c2)[C@@H]1O)c1cc(O)c(O)c(O)c1 (stereo partly drawn) [1,2,3,6-Tetragalloylglucose] | -1.751 | -1.021 | -1.386 | – | – | – | – | 3594.24 | 5324.12 | 1864.38 | – | – | –
17 | CC(=O)c1cc2c(CO)cc(O)cc2oc1=O [Armillarisin A] | -0.702 | 0.126 | -0.288 | 16013.9 | 17917.5 | 14110.3 | – | – | – | – | – | – | –
18 | COc1cc2c(cc1O)C[C@H]1c3cc(O)c(OC)cc3CC[N@@+]1(C)C2.[Cl-] [Phellodendrine (chloride)] | 0.263 | -0.68 | -0.208 | 17505.3 | 29504.3 | 5506.25 | – | – | – | – | – | – | –
19 | CC(=O)O[C@H]1C(=O)c2c(O)cc(O)cc2O[C@@H]1c1ccccc1 [Pinobanksin 3-acetate] | 0.2 | -0.125 | – | – | – | – | – | 20089.3 | 28746.2 | 11432.4 | – | – | 0.037
20 | O=C(O)C(O)c1ccc(O)cc1 (stereo not drawn) [p-Hydroxymandelic acid] | 0.77 | 1.484 | – | – | – | – | – | 32106.2 | 35598.4 | 28613.9 | 1.127 | – | –
21 | COc1cc(OC)c(CCC(=O)c2ccc(O)cc2)c(OC)c1 [Loureirin B] | 1.015 | 0.248 | – | – | – | – | – | 26974.5 | 38536.8 | 15412.2 | – | 0.631 | –
22 | O=C(O)CCc1ccc(O)c(O)c1 [Dihydrocaffeic acid] | 0.014 | -0.922 | – | 14716.5 | 26515.6 | 2917.33 | – | – | – | – | -0.454 | – | –
23 | O=C1CC(C(=O)O)c2c1oc(=O)c1cc(O)c(O)c(O)c21 (stereo not drawn) [Brevifolincarboxylic acid] | -1.001 | -1.013 | -1.007 | – | – | – | – | 8139.85 | 14330.3 | 1949.4 | – | – | –
24 | COc1cc(/C=C/C(=O)O)ccc1O [Ferulic acid] | -0.555 | -0.346 | – | 14374.8 | 19680.6 | 9068.99 | – | – | – | – | -0.451 | – | –
